Entries after “also recorded” stand apart in the source; their conditions may differ. Blank lines part the entries; values can stand above or below the molecule they belong to.
Experiments:
[1] = Metabolic stability (stated, no method)
sEH = target: T1, sEH (Homo sapiens, UniProt P34913); assay: Inhibition of soluble epoxide hydrolase (sEH); type: biochemical
T1 sequence (P34913 1-555): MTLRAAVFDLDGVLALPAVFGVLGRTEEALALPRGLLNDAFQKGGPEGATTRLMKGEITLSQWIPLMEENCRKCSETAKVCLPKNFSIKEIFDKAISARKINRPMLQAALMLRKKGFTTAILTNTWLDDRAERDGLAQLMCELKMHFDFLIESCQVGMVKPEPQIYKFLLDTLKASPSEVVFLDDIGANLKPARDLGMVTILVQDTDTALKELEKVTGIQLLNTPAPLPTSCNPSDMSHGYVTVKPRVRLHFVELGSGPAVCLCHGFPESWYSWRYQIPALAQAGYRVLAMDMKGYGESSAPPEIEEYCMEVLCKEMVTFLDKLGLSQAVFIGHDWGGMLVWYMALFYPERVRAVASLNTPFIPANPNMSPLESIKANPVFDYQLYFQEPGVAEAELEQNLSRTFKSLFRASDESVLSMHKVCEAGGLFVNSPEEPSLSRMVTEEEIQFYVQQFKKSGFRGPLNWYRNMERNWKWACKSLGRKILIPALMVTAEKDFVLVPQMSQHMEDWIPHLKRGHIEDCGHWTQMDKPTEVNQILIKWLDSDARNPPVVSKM
Excerpt: The enzyme also can be detected based on the binding of specific ligands to the catalytic site which either immobilize the enzyme or label it with a probe such as dansyl, fluoracein, luciferase, green fluorescent protein or other reagent.
The assays are normally carried out with a recombinant enzyme following affinity purification.

[2] = test system: tobacco smoke-induced inflammation in the lungs of rats; settings: Smith 2002; cited from earlier work
[3] = Pharmacokinetics in SH rats following subcutaneous administration; type: in vivo
Experimental: Equipment. LC-MS-MS analysis was performed using a Micromass Quattro Ultima triple quadrupole tandem mass spectrometer (Micromass, Manchester, UK) equipped with atomospheric pressure ionization source [atomospheric z-spray pressure chemical ionization (APcI) or electrospray ionization (ESI) interface]. The HPLC system consisted of a Waters model 2790 separations module (Waters Corporation, Milford, Mass.) including an autosampler with refrigerated sample compartment and as inline vacuum degasser and Waters model 2487 dual λ absorbance detector (Waters Corporation). An XTerra™MS C18 column (30×2.1 mm I. D., 3.5 μm; Waters Corporation) was used with a flow rate of 0.3 mL/min at ambient temperature. Data were manipulated with MassLynx software (Ver. 4.0).
LC-MS-MS conditions. The ESI mass spectrometer was operated in the positive ion mode with a capillary voltage at 1.0 kV. Cone gas (N2) and desolvation gas (N2) were maintained at flow rates of 130 and 630 L/h, respectively. The source and the desolvation temperature were set at 100° C. and 300° C., respectively. […] Quantitative analysis was performed in the multiple reaction monitoring (MRM) mode with a dwell time of 300 ms. Ultra pure argon (99.9999%) was used as a collision gas at a pressure of 2.5 milli-torr for collision-induced dissociation (CID). […]
Pharmacokinetics analysis. […] AUCt was calculated by the linear/log trapezoidal rule.

[4] = test system: cells in BAL from rats exposed to tobacco smoke; assay: Bronchoalveolar lavage (BAL) cell counts and differentials in rats exposed to tobacco smoke for 3 days; type: in vivo, SH rats; settings: for % Eosinophils / % Lymphocytes / % Macrophages / % Neutrophils: cell differential in BAL, 3 days, mean ± SE (n = 4)
Excerpt: Animals. Healthy, 11-week-old male spontaneously hypertensive (“SH”) (SHR/NCrlBR) rats (derived from WKY rats by phenotypic segregation of the hypertensive trait and inbreeding) were purchased from Charles River Laboratories (Portage, Mich.) and quarantined for 1 week prior to exposure to tobacco smoke. Animals were handled in accordance with standards established by the U.S. Animal Welfare Acts set forth in National Institutes of Health guidelines and the University of California, Davis Animal Care and Use Committee. The rats were housed in plastic cages with TEK-Chip pelleted paper bedding (Harlan Teklad, Madison, Wis.) and maintained on a 12 hour light/12 hour dark cycle. All animals had access to water and Laboratory Rodent Diet 5001 purchased from LabDiet (Brentwood, Mo.) ad libitum before, during and after exposures.
Subcutaneous Implantation of EETs for Tobacco Smoke Exposures. Wax formulations containing EETs were implanted subcutaneously 1 day prior to onset of exposure to tobacco smoke. Animals were implanted with the EETs formulation on the day before the first day of exposure. Four animals from the control group and four animals from the tobacco smoke-exposed group were implanted with the EETs formulation. The approach of a single subcutaneous implantation for the 3-day study was selected to minimize stress to animals from anesthesia.
Subcutaneous injection of AUDA-nBE for Tobacco Smoke Exposures. AUDA-nBE (7 mg/1 ml corn oil) was subcutaneously administered in SH rats at a dose of 10 mg/kg bodyweight. The total volume injected was 0.36 to 0.46 ml. Animals were injected with AUDA-nBE each day prior to exposure. Doses of AUDA-nBE used in this study were selected based on results from preliminary pharmacokinetic studies in mice and rats. These doses were selected to provide optimal efficacy and minimal toxicity over a three-day period. Four animals from the control group and four animals from the tobacco smoke-exposed group were injected with AUDA-nBE. Four animals with EETs implants from the control group and four animals with EETs implants from the tobacco smoke-exposed group were injected with AUDA-nBE. In addition, four control animals and four tobacco smoke-exposed animals were injected with corn oil using the same protocol as the AUDA-nBE -injected animals.
Tobacco Smoke Exposure. Rats were exposed to a mixture of sidestream and mainstream cigarette smoke in a smoking apparatus (Teague, S. V. et al., Inhal. Toxicol. 6:79-93 (1994)). The cigarettes were humidified 2R4F research cigarettes (Tobacco Health Research Institute; Lexington, Ky.). An automatic metered puffer was used to smoke the cigarettes under Federal Trade Commission conditions (35 ml puff, 2 sec duration, 1 puff per min). The smoke was collected in a chimney, diluted with filtered air, and delivered to whole-body exposure chambers. The exposures were characterized for three major constituents of cigarette smoke; nicotine, carbon monoxide, and total suspended particulates (TSP). […] Carbon monoxide was measured every 30 minutes, TSP every 2 hours, and nicotine once per day (approximately midway through the exposure period).
Bronchoalveolar Lavage. Established protocols were followed for bronchoalveolar lavage (BAL) of animals (Gossart, S. et al., J. Immunol. 156:1540-1548 (1996)). Eighteen hours after the last exposure to tobacco smoke, animals were anesthetized with an overdose of sodium pentobarbital. The trachea was cannulated and the lung lavaged with one aliquot of Ca^2+/Mg^2+-free phosphate buffered saline (PBS, pH 7.4). The volume of the aliquot was equal to 35 ml/kg body weight (approximately 90% of total lung capacity). The aliquot was instilled into the lungs three times before final collection. The BAL fluid (BALF) was immediately centrifuged at 250×g for 10 min at 4° C. to remove cells. The cell pellet was then resuspended in PBS and the cells counted with a hemocytometer. […]

metabolic stability [1]: metabolically stable
activity as an inhibitor of sEH (sEH): particularly high activity
Structure (SMILES): CCCCCCCCCCCCNC(=O)NC12CC3CC(CC(C3)C1)C2 [ADU, N-Adamantyl-N′-dodecyl urea]

Structure (SMILES): CCN1C=CN(CC)C1=C1C2=NC(=C(c3n(CC)cc[n+]3CC)C3=NC(=C(c4n(CC)cc[n+]4CC)c4ccc([n-]4)C(c4n(CC)cc[n+]4CC)=C4C=CC1=N4)C=C3)C=C2.[Cl-].[Cl-].[Cl-].[Cl-].[Cl-].[Mn+3] [AEOL 10150]
tobacco smoke-induced inflammation in the lungs [2]: decrease

metabolism of the prodrug ([3]; subcutaneous administration): metabolized to AUDA
Structure (SMILES): CCCCOC(=O)CCCCCCCCCCCNC(=O)NC12CC3CC(CC(C3)C1)C2 [AUDA-nBE, 12-(3-adamantane-1-yl-ureido)-dodecanoic acid butyl ester]
% Eosinophils ([4]; filtered air): 0.15 ± 0.10%
% Lymphocytes ([4]; filtered air): 0.55 ± 0.15%
% Macrophages ([4]; filtered air): 92.1 ± 1.6%
% Neutrophils ([4]; filtered air): 7.3 ± 1.8%
% Eosinophils ([4]; tobacco smoke): 0.10 ± 0.10%
% Lymphocytes ([4]; tobacco smoke): 0.25 ± 0.10 %
% Macrophages ([4]; tobacco smoke): 62.9 ± 1.8 %
% Neutrophils ([4]; tobacco smoke): 36.8 ± 1.6 %
reduction in the number of neutrophils found in the lungs ([4]; rats, animal model of COPD (tobacco smoke), FIG. 4): ~55%
total number of cells in BALF ([4]; tobacco smoke 3 days, treatment before exposure, FIG. 2): significantly decreased
number of BALF macrophages ([4]; tobacco smoke 3 days, treatment before exposure, FIG. 3): significantly decreased; also recorded: significant reductions
number of BALF neutrophils ([4]; tobacco smoke 3 days, treatment before exposure, FIG. 4): significantly decreased; also recorded: significant reductions
number of BALF lymphocytes ([4]; tobacco smoke 3 days, treatment before exposure, FIG. 5): decreased the number of BALF lymphocytes to levels not significantly different from filtered air controls; also recorded: significant reductions

half-life ([3]; blood, single subcutaneous dose of AUDA-nBE 10 mg/kg): 22 h
Structure (SMILES): O=C(O)CCCCCCCCCCCNC(=O)NC12CC3CC(CC(C3)C1)C2 [AUDA]

From US20100317733A1, “USE OF CIS-EPOXYEICOSANTRIENOIC ACIDS AND INHIBITORS OF SOLUBLE EPOXIDE HYDROLASE TO REDUCE PULMONARY INFILTRATION BY NEUTROPHILS” (THE REGENTS OF THE UNIVERSITY OF CALIFORNIA, priority 2004, published 2010)
